Reference: PubChem BioAssay (NCI)
“And” between values parts separate entries of the source, which are not always exact repeats. Identical values can stand only once.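 Tested at 5 concentrations; 48 h exposure; 96-well plates; endpoints linearly interpolated, else capped at highest concentration. GI50: concentration for 50% inhibition of growth. The concentration for full growth arrest is given as TGI.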

Experiments:
Assay in all cases: DTP human tumour cell line panel, 48 h
DU-145 prostate = test system: DU-145 prostate
HOP-62 NSCLC = test system: HOP-62 NSCLC
HT29 colon = test system: HT29 colon
MCF7 breast = test system: MCF7 breast
OVCAR-4 ovarian = test system: OVCAR-4 ovarian
RPMI-8226 leukemia = test system: RPMI-8226 leukemia
SF-295 CNS = test system: SF-295 CNS
SF-539 CNS = test system: SF-539 CNS
SN12C renal = test system: SN12C renal
SNB-75 CNS = test system: SNB-75 CNS

| SMILES | GI50 (DU-145 prostate) | GI50 (HOP-62 NSCLC) | TGI (HOP-62 NSCLC) | GI50 (HT29 colon) | TGI (HT29 colon) | GI50 (MCF7 breast) | TGI (MCF7 breast) | GI50 (OVCAR-4 ovarian) | TGI (OVCAR-4 ovarian) | GI50 (RPMI-8226 leukemia) | TGI (RPMI-8226 leukemia) | GI50 (SF-295 CNS) | TGI (SF-295 CNS) | GI50 (SF-539 CNS) | TGI (SF-539 CNS) | GI50 (SN12C renal) | TGI (SN12C renal) | GI50 (SNB-75 CNS) | TGI (SNB-75 CNS) | TGI (DU-145 prostate) |
| --- | --- | --- | --- | --- | --- | --- | --- | --- | --- | --- | --- | --- | --- | --- | --- | --- | --- | --- | --- | --- |
| CC(C)c1nc(CN(C)C(=O)N[C@H](C(=O)N[C@@H](Cc2ccccc2)C[C@H](O)[C@H](Cc2ccccc2)NC(=O)OCc2cncs2)C(C)C)cs1 | 1420 nM | 19600 nM | 38.2 µM | 19300 nM | 50.6 µM | 21000 nM | 64.9 µM | 27200 nM | > 92.1 µM | 7900 nM | 27.7 µM | 22100 nM | 50.5 µM | 2330 nM | 49.4 µM | 20200 nM | 50.4 µM | 20.4 µM | 54.3 µM |  |
| COc1ccc(-c2cc(=O)c3c(OC)c(OC)c(OC)cc3o2)cc1 |  |  | 59.8 µM |  | 99.5 µM |  | > 100 µM |  | > 100 µM |  | > 100 µM |  | 96.9 µM |  | > 100 µM |  | 91.1 µM |  | > 100 µM | > 100 µM |
| CC[C@@H]1C(=O)N(C)c2cnc(Nc3ccc(C(=O)NC4CCN(C)CC4)cc3OC)nc2N1C1CCCC1 | 3.63 nM | 5.33 nM and < 10 nM | > 10 µM and 6.35 µM | 3.6 nM and < 10 nM | > 4.71 µM and 10.3 µM | 3.31 nM and < 10 nM | > 4.96 µM and 5.55 µM | 303 nM and 163 nM | 9.87 µM and 4.4 µM | 19.8 nM and 39.5 nM | 1.69 µM and 1.91 µM | 14.7 nM and 18.9 nM | > 10 µM and 15 µM | 26.9 nM and 23.8 nM | 0.352 µM and 0.583 µM | 23.3 nM and 39 nM | 4.32 µM and 14.1 µM | 0.00411 µM and < 0.0112 µM | 0.233 µM and 0.17 µM | > 10 µM |
| N#CSc1c[nH]c2cccc(/C=C/C(=O)/C=C(/C=C/c3cccc4[nH]cc(SC#N)c34)OB(F)F)c12 | 1100 nM | 3160 nM | 17.1 µM | 386 nM | 2.26 µM | 459 nM | 3.63 µM | 338 nM | 3.95 µM | 351 nM | 30 µM | 2680 nM | 9.16 µM | 1180 nM | 4.27 µM | 495 nM | 3.72 µM | 2.18 µM | 7.55 µM | 2.63 µM |
| O=C1Nc2c(C(F)(F)F)cccc2[C@]1(c1ccc(O)cc1)c1ccc(OC(F)(F)F)cc1 | 11700 nM | 15700 nM | 39.9 µM | 10300 nM | 28.9 µM | 4050 nM | 16.9 µM | 543 nM | 5.23 µM | 10400 nM | 59.1 µM | 10000 nM | 22.1 µM | 14400 nM | 27.6 µM | 2830 nM | 12.3 µM | 5.78 µM | 19.5 µM | 23.9 µM |
| COc1ccc(/C=C/c2nccc3ccccc23)cc1OC |  |  | > 10 µM |  | > 10 µM |  | > 10 µM |  | > 10 µM |  | > 10 µM |  | > 10 µM |  | > 10 µM |  | > 10 µM |  | > 10 µM | > 10 µM |
| NC(=O)c1ccc(I)c(N)c1 | > 100000 nM | > 100000 nM | > 100 µM | > 100000 nM | > 100 µM | > 100000 nM | > 100 µM | > 100000 nM | > 100 µM | > 100000 nM | > 100 µM | > 100000 nM | > 100 µM | > 100000 nM | > 100 µM | > 100000 nM | > 100 µM | > 100 µM | > 100 µM | > 100 µM |
| C[C@@H]1OC(O)[C@@H](F)[C@H](O)[C@@H]1O (stereo partly drawn) | > 100000 nM | > 100000 nM | > 100 µM | > 100000 nM | > 100 µM | > 100000 nM | > 100 µM | > 100000 nM | > 100 µM | > 100000 nM | > 100 µM | > 100000 nM | > 100 µM | > 100000 nM | > 100 µM | > 100000 nM | > 100 µM | > 100 µM | > 100 µM | > 100 µM |
| CCN(CC)c1ccc(/C=C/c2ccc3cc(C)ccc3[n+]2CC)cc1 | 94.2 nM | 158 nM | 6.21 µM | 77.1 nM | 2.19 µM | 77.3 nM | 3.26 µM | 46.8 nM | 12.1 µM | 29 nM | 3.66 µM | 65.8 nM | 0.864 µM | 172 nM | 10.9 µM | 124 nM | 1.2 µM | 0.161 µM | 6.24 µM | 12.7 µM |
| C=CC(=O)N1CC2(CCN(c3nc(OC4CCN(CCCOC)CC4)nc4c(OCC(F)(F)F)c(-c5c(C)ccc6[nH]ncc56)c(C5CC5)cc34)CC2)C1 | 2900 nM |  | 19.6 µM | 2280 nM | 5.83 µM | 1670 nM | 3.37 µM | 4540 nM | 18.5 µM | 2140 nM | 5.81 µM | 2080 nM | 5.65 µM | 1650 nM | 3.07 µM | 2360 nM | 5.86 µM | 3.83 µM | 16.8 µM | 9.12 µM |
| CC1=CC(=Nc2ccc(N(CCCl)CCCl)cc2)C=C(C)C1=O | 374 nM | 1100 nM | 7.37 µM | 1110 nM | 4.59 µM | 413 nM | 3.98 µM | 1560 nM | 4.76 µM | 1140 nM | 9.29 µM | 626 nM | 22.6 µM | 448 nM | 8.71 µM | 1010 nM | > 26.7 µM | 1 µM | 7.87 µM | 4.57 µM |
| COc1cc(C2=C(c3ccccc3)COC2=O)cc(OC)c1OC | 4680 nM | 2070 nM | > 100 µM | 3130 nM | 97.5 µM | 537 nM | > 100 µM | 38900 nM | > 100 µM | 1120 nM | 5.28 µM | 324 nM | 2.9 µM | 1260 nM | > 51.4 µM | 5960 nM | > 100 µM | > 100 µM | > 100 µM | > 100 µM |
| CN1CCN(C)C12C=c1ccccc1=CC21CC1 |  |  | > 100 µM |  | 32.7 µM |  | > 100 µM |  | > 100 µM |  | 75.1 µM |  | > 100 µM |  | > 100 µM |  | > 100 µM |  | > 93.1 µM | > 100 µM |
| Cn1c2ccccc2c2c(-c3ccccc3)[n+]3ccncc3nc21 | > 100000 nM | > 100000 nM | > 100 µM | > 100000 nM | > 100 µM | 63600 nM | > 100 µM | > 100000 nM | > 100 µM | 36100 nM | > 100 µM | > 100000 nM | > 100 µM | 48300 nM | > 100 µM | 48200 nM | > 100 µM | > 100 µM | > 100 µM | > 100 µM |
